The target of one experiment is PIM1 (Homo sapiens, UniProt P11309). Nature of the experiment: KinaseGlo Pim1 ATP depletion assay. The experiment is classed as biochemical. In a few lines: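 IC50 is derived from residual ATP measured by KinaseGlo Plus luminescence once about half the ATP was consumed. Final conditions were 20 μM ATP, 40 μM BAD peptide and 2.5 nM kinase in HEPES pH 7.5 buffer with MgCl2, DTT and BSA, plus 2.5% DMSO. Compound and enzyme were premixed 15 min before ATP addition.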
In general terms: Kinase-Glo reads ATP consumption through a luciferase reaction.

Another experiment has as its target PIM3 (Homo sapiens, UniProt Q86V86). Nature of the experiment: KinaseGlo Pim3 ATP depletion assay. The experiment is classed as biochemical. The method in brief: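 Residual ATP was detected by luciferase luminescence once about half had been consumed. The reaction contained 5 nM enzyme, 100 μM BAD peptide (RSRHSSYPAGT) and 40 μM ATP in 50 mM HEPES pH 7.5, 5 mM MgCl2, 1 mM DTT and 0.05% BSA with 2.5% DMSO. Compound and enzyme/peptide were premixed 15 min before ATP.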

For the next experiment, the target named is GSK3β (Homo sapiens, UniProt P49841). The experiment in a line: GSK3β ATP depletion assay. The experiment is classed as biochemical. To be noted: read-out: GSK3b IC50. The method in brief:
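Kinase activity is read as ATP consumption: luciferase luminescence reports the ATP remaining once roughly half of the 2 μM ATP is used. Reaction mix: 5 nM GSK3β, 10 μM b-CREB peptide, 50 mM Tris pH 7.5, 15 mM MgCl2, 1 mM DTT, 0.1% BSA, 2.5% DMSO. Enzyme and peptide are preincubated 15 min before ATP is added.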

For a further experiment, the target named is PIM2 (Homo sapiens, UniProt Q9P1W9). The experiment in a line: KinaseGlo Pim2 ATP depletion assay. The experiment is classed as biochemical. The method in brief:
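Compound sat 15 min with enzyme and BAD peptide before ATP was added; final levels 5 nM PIM2, 10 μM peptide, 4 μM ATP, 2.5% DMSO, pH 7.5 HEPES buffer with MgCl2, DTT, BSA. Stopped near 50% ATP consumption; remaining ATP measured by luciferase luminescence.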

Experiment [1] relates to KMS11 (human myeloma cell line). The experiment in a line: Cell proliferation assay (CellTiter-Glo), KMS11. The experiment is classed as cell-based. The note with it: Homo sapiens, KMS-11; KMS11-Luc cells. In a few lines:
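EC50 derived from CellTiter-Glo luminescence after 3-day exposure at 37° C. Compound was diluted to 2× in medium and added to an equal volume of cells. KMS11 myeloma cells were plated on assay day at 2000/well in IMDM with 10% FBS and sodium pyruvate.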
Background: ATP-based viability assays read luminescence as a measure of living cells.

In patent US20130109682A1, “CYCLIC ETHER COMPOUNDS USEFUL AS KINASE INHIBITORS” (NOVARTIS AG, priority 2010, published 2013) one finds IC50 and EC50 data, which are given here for 16 molecules.

The IC50 is the concentration that inhibits the measured activity by half. In general, EC50 refers to the midpoint of the concentration-response curve.

Sequence of GSK3β (P49841 whole entry, species assumed): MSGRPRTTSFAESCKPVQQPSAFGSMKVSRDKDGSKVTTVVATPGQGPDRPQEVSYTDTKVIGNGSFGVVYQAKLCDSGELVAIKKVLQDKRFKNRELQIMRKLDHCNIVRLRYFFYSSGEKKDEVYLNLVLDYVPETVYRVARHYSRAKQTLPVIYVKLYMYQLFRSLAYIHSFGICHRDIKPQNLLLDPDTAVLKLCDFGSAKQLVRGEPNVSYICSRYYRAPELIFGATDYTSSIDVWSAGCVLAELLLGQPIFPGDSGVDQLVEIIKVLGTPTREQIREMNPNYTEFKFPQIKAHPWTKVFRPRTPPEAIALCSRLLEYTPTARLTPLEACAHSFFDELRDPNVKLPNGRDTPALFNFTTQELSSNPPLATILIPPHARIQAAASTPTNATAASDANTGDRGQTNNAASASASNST
Sequence of PIM1 (P11309 whole entry): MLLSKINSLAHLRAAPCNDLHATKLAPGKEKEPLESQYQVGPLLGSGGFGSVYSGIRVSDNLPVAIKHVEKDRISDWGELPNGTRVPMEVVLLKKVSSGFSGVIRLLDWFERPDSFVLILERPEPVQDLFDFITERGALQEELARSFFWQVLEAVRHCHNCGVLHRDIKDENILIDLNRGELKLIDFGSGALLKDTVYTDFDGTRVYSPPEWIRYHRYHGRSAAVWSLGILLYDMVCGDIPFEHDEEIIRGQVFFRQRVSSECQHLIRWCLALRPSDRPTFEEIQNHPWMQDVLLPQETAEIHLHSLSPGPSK
Sequence of PIM2 (Q9P1W9 whole entry): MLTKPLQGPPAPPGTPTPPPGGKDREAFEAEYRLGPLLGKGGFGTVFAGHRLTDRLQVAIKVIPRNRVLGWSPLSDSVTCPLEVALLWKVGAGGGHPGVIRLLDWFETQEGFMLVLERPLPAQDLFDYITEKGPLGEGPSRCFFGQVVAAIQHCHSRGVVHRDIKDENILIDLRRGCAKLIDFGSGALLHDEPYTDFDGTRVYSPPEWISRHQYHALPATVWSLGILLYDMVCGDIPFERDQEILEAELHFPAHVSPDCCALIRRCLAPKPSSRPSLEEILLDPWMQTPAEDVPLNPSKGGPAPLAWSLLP

Consider `O=C1CC[C@H]2O[C@@H](c3ccncc3NC(=O)c3ccc(F)c(-c4c(F)cccc4F)n3)C[C@@H](O)[C@H]2N1` [Example 198, 6-(2,6-difluorophenyl)-5-fluoro-N-(4-((2R,4R,4aR,8aR)-4-hydroxy-6-oxooctahydro-2H-pyrano[3,2-b]pyridin-2-yl)pyridin-3-yl)picolinamide], for which the IC50 amounted to 2.6 nM against PIM1, 19.2 nM on PIM3, 24 nM on GSK3β and 53.6 nM against PIM2. The molecule further displayed an EC50 in experiment [1] of over 10000 nM.

On to `CC[C@H]1O[C@@H](c2ccncc2NC(=O)c2nc(-c3c(F)cccc3F)c(F)cc2N)C[C@@H](O)[C@]1(C)O` [Example 166, 3-amino-6-(2,6-difluorophenyl)-N-(4-((2R,4R,5S,6R)-6-ethyl-4,5-dihydroxy-5-methyltetrahydro-2H-pyran-2-yl)pyridin-3-yl)-5-fluoropicolinamide], for which the IC50 at PIM1 was 0.6 nM; at PIM3, 1.5 nM; on GSK3β, 1680 nM; against PIM2, 1.2 nM. Moreover, the response in experiment [1] was half-maximal at 1330 nM (EC50).

For `CC(C)NC(=O)c1ccc(F)c(-c2nc(C(=O)Nc3cnccc3[C@H]3C[C@@H](O)[C@](C)(O)[C@@H](C)O3)ccc2F)c1` [Example 105, N-(4-((2R,4R,5S,6R)-4,5-dihydroxy-5,6-dimethyltetrahydro-2H-pyran-2-yl)pyridin-3-yl)-5-fluoro-6-(2-fluoro-5-(isopropylcarbamoyl)phenyl)picolinamide], the IC50 against PIM1 came out at 1 nM; at PIM3 it was 6 nM; on GSK3β it was 1180 nM; against PIM2, 50 nM. The same molecule had a concentration giving a half-maximal response (EC50) in experiment [1] of 4700 nM.

Turning to `C[C@H]1O[C@@H](c2ccncc2NC(=O)c2nc(-c3c(F)cccc3F)ncc2N)C[C@@H](O)[C@]1(C)O` [Example 146, 5-amino-2-(2,6-difluorophenyl)-N-(4-((2R,4R,5S,6R)-4,5-dihydroxy-5,6-dimethyltetrahydro-2H-pyran-2-yl)pyridin-3-yl)pyrimidine-4-carboxamide], the IC50 was 5.7 nM against PIM1, 5.1 nM against PIM3, 345 nM on GSK3β and 9.5 nM at PIM2. The EC50 in experiment [1] is over 10000 nM.

In the case of `NC(=O)[C@H]1O[C@@H](c2ccncc2NC(=O)c2ccc(F)c(-c3c(F)cccc3F)n2)C[C@@H](O)[C@@H]1O` [Example 141, N-(4-((2R,4R,5S,6S)-6-carbamoyl-4,5-dihydroxytetrahydro-2H-pyran-2-yl)pyridin-3-yl)-6-(2,6-difluorophenyl)-5-fluoropicolinamide], the IC50 against PIM1 was 181 nM; on PIM3, 94 nM; at GSK3β, 3360 nM; against PIM2 it was 720 nM. The molecule also displayed an EC50 in experiment [1] of over 10000 nM.

On to `O=C(Nc1cnccc1C1=C[C@@H](O)[C@H](O)[C@@H](CCl)O1)c1ccc(F)c(-c2c(F)cccc2F)n1` [Example 31, N-(4-((2S,3S,4R)-2-(chloromethyl)-3,4-dihydroxy-3,4-dihydro-2H-pyran-6-yl)pyridin-3-yl)-6-(2,6-difluorophenyl)-5-fluoropicolinamide], for which the IC50 against PIM1 came to 1 nM; against PIM3 it was 1 nM; on GSK3β it was 117 nM; against PIM2 it was 1 nM. In experiment [1], this molecule yielded an EC50 of 1900 nM.

Take `CC[C@]1(O)[C@H](O)C[C@H](c2ccncc2NC(=O)c2nc(-c3nccs3)ccc2N)O[C@@H]1C` [Example 3, 3-amino-N-(4-((2R,4R,5S,6R)-5-ethyl-4,5-dihydroxy-6-methyltetrahydro-2H-pyran-2-yl)pyridin-3-yl)-6-(thiazol-2-yl)picolinamide]: the IC50 turned out to be 8.7 nM on PIM1, 12 nM against PIM3, 1170 nM at GSK3β and 66 nM on PIM2. This molecule returned an EC50 in experiment [1] of over 10000 nM.

Take `O=C(Nc1cnccc1[C@@H]1C[C@H](O)[C@@H](O)[C@H](C2CC2)O1)c1ccc(F)c(-c2c(F)cccc2F)n1` [Example 209, N-(4-((2S,4S,5R,6S)-6-cyclopropyl-4,5-dihydroxytetrahydro-2H-pyran-2-yl)pyridin-3-yl)-6-(2,6-difluorophenyl)-5-fluoropicolinamide]: the IC50 was 3.2 nM at PIM1, 4.2 nM at PIM3, 1060 nM on GSK3β and 7.9 nM at PIM2. Besides, in experiment [1], the response was half-maximal at 9500 nM (EC50).

Regarding `O=C(Nc1cnccc1[C@@H]1C[C@H](O)[C@]2(O)CCC[C@@H]2O1)c1cccn(-c2ccccc2)c1=O` [Example 192, N-(4-((2S,4S,4aR,7aS)-4,4a-dihydroxyoctahydrocyclopenta[b]pyran-2-yl)pyridin-3-yl)-2-oxo-1-phenyl-1,2-dihydropyridine-3-carboxamide], the IC50 against PIM1, at PIM3, on GSK3β and on PIM2 was over 25000 nM in each case. This molecule had an EC50 in experiment [1] of over 10000 nM.

On to `N#CC[C@H]1O[C@@H](c2ccncc2NC(=O)c2nc(-c3c(F)cccc3F)ncc2N)C[C@@H](O)[C@@H]1O` [Example 138, 5-amino-N-(4-((2R,4R,5S,6R)-6-(cyanomethyl)-4,5-dihydroxytetrahydro-2H-pyran-2-yl)pyridin-3-yl)-2-(2,6-difluorophenyl)pyrimidine-4-carboxamide], for which the IC50 at PIM1 worked out at 24 nM; against PIM3, 14 nM; on GSK3β, 235 nM; at PIM2 it was 27 nM. For the same molecule, the EC50 in experiment [1] is over 10000 nM.

With `C[C@H]1O[C@@H](c2ccncc2NC(=O)c2csc(-c3c(F)cccc3F)n2)[C@H](F)[C@@H](O)[C@]1(C)O` (stereo in doubt) [Example 68, 2-(2,6-difluorophenyl)-N-(4-((2S,3R,4S,5S,6R)-3-fluoro-4,5-dihydroxy-5,6-dimethyltetrahydro-2H-pyran-2-yl)pyridin-3-yl)thiazole-4-carboxamide], the IC50 against PIM1 was 6 nM; at PIM3, 89 nM; at GSK3β, 1070 nM; on PIM2, 3390 nM. In experiment [1], this molecule came in with an EC50 of 6000 nM.

With `Nc1cc(F)c(-c2c(F)cccc2F)nc1C(=O)Nc1cnccc1[C@H]1C[C@@H](O)[C@H](O)[C@@H](CCl)O1` [Example 35, 3-amino-N-(4-((2R,4R,5S,6S)-6-(chloromethyl)-4,5-dihydroxytetrahydro-2H-pyran-2-yl)pyridin-3-yl)-6-(2,6-difluorophenyl)-5-fluoropicolinamide], the IC50 against PIM1 was 1 nM; at PIM3 it was 1 nM; at GSK3β, 88 nM; against PIM2 it was 1 nM. In experiment [1], this molecule showed an EC50 of 1000 nM.

`O=C(Nc1cnccc1[C@@H]1C[C@H](O)[C@@H](O)[C@H](C2CC2)O1)c1cccc(-c2c(F)cccc2F)n1` [Example 206, N-(4-((2S,4S,5R,6S)-6-cyclopropyl-4,5-dihydroxytetrahydro-2H-pyran-2-yl)pyridin-3-yl)-6-(2,6-difluorophenyl)picolinamide]: the IC50 against PIM1 came out at 19.9 nM; at PIM3, 20.2 nM; on GSK3β, 1920 nM; on PIM2, 33.8 nM. In experiment [1], this molecule returned an EC50 of over 10000 nM.

On to `C=C[C@H]1OC(c2ccncc2NC(=O)c2nc(-c3c(F)cccc3F)c(F)cc2N)=C[C@@H](O)[C@@H]1O` [Example 25, 3-amino-6-(2,6-difluorophenyl)-N-(4-((2R,3S,4R)-3,4-dihydroxy-2-vinyl-3,4-dihydro-2H-pyran-6-yl)pyridin-3-yl)-5-fluoropicolinamide], for which the IC50 amounted to 1 nM at PIM1, 2 nM against PIM3, 660 nM on GSK3β and 2 nM against PIM2. For the same molecule, in experiment [1], the EC50 stood at 1350 nM.

For the molecule `N#C[C@H]1O[C@@H](c2ccncc2NC(=O)c2nc(-c3c(F)cccc3F)c(F)cc2N)C[C@@H](O)[C@@H]1O` [Example 12, 3-amino-N-(4-((2R,4R,5S,6R)-6-cyano-4,5-dihydroxytetrahydro-2H-pyran-2-yl)pyridin-3-yl)-6-(2,6-difluorophenyl)-5-fluoropicolinamide], the half-maximal inhibitory concentration (IC50) on PIM1 was 1 nM; on PIM3, 3 nM; on GSK3β, 220 nM; on PIM2, 5 nM. Further, the EC50 in experiment [1] is 7650 nM.

Take `C[C@@H]1O[C@H](c2ccncc2NC(=O)c2ccc(F)c(-c3c(F)cccc3F)n2)C[C@H](O)[C@H]1O` [Example 120, 6-(2,6-difluorophenyl)-N-(4-((2S,4S,5R,6S)-4,5-dihydroxy-6-methyltetrahydro-2H-pyran-2-yl)pyridin-3-yl)-5-fluoropicolinamide]: the IC50 against PIM1 turned out to be 2 nM; against PIM3, 3 nM; at GSK3β, 798 nM; against PIM2, 12 nM. Moreover, the EC50 in experiment [1] was over 10000 nM.
